Test results published in BindingDB's records for patent US9828374 (Hoffmann-La Roche, 2017).

Target: Trace amine-associated receptor 1 (Mus musculus, UniProt Q923Y8)
Assay: Radioligand Binding Assay
Protocol: Nonspecific binding was defined as the amount of [H]-(S)-4-[(ethyl-phenyl-amino)-methyl]-4,5-dihydro-oxazol-2-ylamine bound in the presence of 10 μM unlabeled ligand. All compounds were tested at a broad range of concentrations ([…]) in duplicates.

Chain of Trace amine-associated receptor 1 (Q923Y8 whole entry): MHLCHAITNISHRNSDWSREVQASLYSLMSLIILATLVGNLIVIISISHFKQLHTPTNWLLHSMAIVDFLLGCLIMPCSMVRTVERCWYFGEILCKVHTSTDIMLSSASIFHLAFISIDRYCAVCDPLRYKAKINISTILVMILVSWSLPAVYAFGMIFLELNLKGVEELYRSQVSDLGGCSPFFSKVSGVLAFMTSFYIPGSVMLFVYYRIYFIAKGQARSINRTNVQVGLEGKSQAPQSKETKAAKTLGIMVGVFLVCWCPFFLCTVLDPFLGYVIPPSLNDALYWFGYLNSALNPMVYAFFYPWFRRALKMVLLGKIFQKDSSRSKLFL

Point of comparison: `O=C(Nc1ccc2c(c1)CCN1CCNC[C@@H]21)c1cnc(C(F)(F)F)nc1` [US9828374, Example 4], Ki 189 nM. Against it:
- Brc1ccc2c(c1)CCN1CCNC[C@@H]21 [US9828374, Example 2] — within 1.5-fold, 180 nM
- Cc1cc(Nc2ccc3c(c2)CCN2CCNC[C@@H]32)nc(OCC(F)(F)F)n1 [US9828374, Example 26] — 4.6-fold lower, 41 nM
- Fc1c(Nc2cc(Cl)nc(C(F)(F)F)n2)ccc2c1CCN1CCNC[C@@H]21 [US9828374, Example 34] — 2.4-fold lower, 79.5 nM
